Data on one compound can be found in paper PMC8851282, “Senolysis induced by 25-hydroxycholesterol targets CRYAB in multiple cell types” (iScience, 2022).

One test concerns gastrocnemius muscle. To be noted: ip, 50 mg/kg, 120 h.
Test [1] concerns human articular chondrocytes (hAC). Description: Cell viability assay of NS and Doxo- or IR-induced senescent hACs treated with 25HC. The class given is cell-based. To be noted: 11.1 μM after 12 days; Doxo or IR induced senescence. As for the experimental part: Figure 7 25HC treatment timeline and its effects on NS and SEN hCMECs, hLSCs, hRPTECs, and hACs All cell types were treated with either DMSO, 250 nM Doxo or 10-Gy IR at the times shown. 25HC treatment was started 24 h after Doxo or IR treatment. Cell viability was measured every 3–5 days for 15 days. Optimal treatment times for maximum senolysis are shown for each cell type: day 15 for hCMECs, day 3 for hLSCs, day 9 for hRPTECs and day 12 for hACs. For qRT-PCR: mean ± SE, n =4, ∗p< 0.05, ∗∗p< 0.01, ∗∗∗p<0.001, ∗∗∗∗p<0.0001 by Dunnett’s multiple comparisons test vs DMSO or NS, For cell viability assays: mean ± SE, n =3, ∗∗p< 0.01, ∗∗∗p<0.001, ∗∗∗∗p<0.0001 vs 0 mM by student’s t test.
All experiments were performed in incubators at 37 °C, 3% O2 and 5% CO2. Senescence was induced by treatment with either Doxo (250 nM for 24 h) ([Demaria et al., 2017]) or X-irradiation (10 Gy) ([Limbad et al., 2020]). […]
Cell viability was assessed using a cell counting kit-8 from Dojindo Molecular Technologies, Inc (Cat CK04-20). […] The supernatant was transferred to a new 96-well plate and absorbance read at 450 nm as recommended in the product datasheet. […]
Cells were treated with DMSO or 250 nM Doxo for 24 h. […] Cell viability was measured every 3–5 days until 15 days. […] Cell viability was measured every 3–5 days until 15 days. […]

Another test has as its system CRYAB. On the set-up: method as in Makley et al., 2015. To be noted: ref Makley et al., 2015; cited from earlier work.
The subject of the next test is SCs. Put plainly: Cell viability assay (cell counting kit-8) of senescent and non-senescent SCs treated with inhibitors. The class given is cell-based, mouse. As for the experimental part:
Figure 3 25HC is a senolytic in multiple muscle cell types (A) Targets, compounds, and mechanisms. (B) Timeline of cell viability assay with inhibitors. Cells were pre-cultured for 24 h, treated with Doxo for 24 h, and then treated with inhibitors. Cell viability was analyzed from day 0–7. (C–E) Effects of inhibitors on viability of FAPs, SCs, and HSMMs. Cells were treated with inhibitors at the indicated concentrations. Cell viability was analyzed on day 3 (HSMMs) or 5 (FAPs and SCs). Blue and red dots indicate non-senescent (NS) and senescent (SEN), respectively. The average value at 0 μM for each group was set at 100% cell viability. p values versus NS were obtained using unpaired two-tailed Student’s t test. ∗p < 0.05, ∗∗p < 0.01, and ∗∗∗p < 0.001.
Figure 4 EC50 fitted curves (triplicates) of inhibitor effects at 3 and 7 days in FAPS and SCs EC50 was defined as the concentration of inhibitors that provokes a response halfway between baseline and maximum senolytic activity. EC50 values were determined by four- parameter logistic modeling using GraphPad Prism 8.0.
Hind limb muscles were digested in DMEM containing 0.5% (w/v) collagenase type II (Worthington) for 90 min at 37 °C with trituration and passed through a 40-μm nylon mesh. Erythrocytes were eliminated by treating with BD Pharm Lyse (BD Biosciences). Cells were resuspended in a washing buffer of PBS with 2% FBS and stained with antibodies for 30 min at 4 °C as described ([Kamizaki et al., 2017]). FAPs and SCs were isolated from the suspension by FACS (Aria II, BD Biosciences) using anti-CD31, CD45, Sca-1, PDGFR and VCAM1 antibodies. FAPs were identified as Sca1/PDGFR-positive and CD31-, CD45- and VCAM1-negative cells ([Uezumi et al., 2010]). SCs were identified as VCAM1-positive and CD31-, CD45-, Sca-1 and PDGFR-negative cells ([Liu et al., 2015]).
All experiments were performed in incubators at 37 °C, 3% O2 and 5% CO2. Senescence was induced by treatment with either Doxo (250 nM for 24 h) ([Demaria et al., 2017]) or X-irradiation (10 Gy) ([Limbad et al., 2020]). For cell culture studies using 25HC, it was used at the indicated concentrations in the media.
FAPs and SCs were cultured on Matrigel-coated dishes (BD Biosciences) in growth medium (GM) consisting of DMEM plus 10% FBS, 1% penicillin-streptomycin and 10% MyoCult (STEMCELL Technologies) for 7 days. Human myogenic cell HSMMs (Lonza) were maintained according to the manufacturer’s instructions with SkGM-2 medium (Lonza).
Cell viability was assessed using a cell counting kit-8 from Dojindo Molecular Technologies, Inc (Cat CK04-20). Cells were incubated with culture media + 10% kit cell viability reagent, 150 μL/well in 96-well plates for 2 h. The supernatant was transferred to a new 96-well plate and absorbance read at 450 nm as recommended in the product datasheet.
(Tetrazolium assays rely on reduction of a dye to a coloured formazan, in cell work by metabolically active cells.)

Regarding `C[C@H](CCCC(C)(C)O)[C@H]1CC[C@H]2[C@@H]3CC=C4C[C@@H](O)CC[C@]4(C)[C@H]3CC[C@]12C` [25HC, 25-hydroxycholesterol], the “muscle mass restored (gastrocnemius wet weight normalized to body weight)” value in the test with gastrocnemius muscle is ~23%. For the same compound, the “senolysis in hACs” value in test [1] is reported as “induced significant senolysis”. The CRYAB aggregation entry in the test on CRYAB is recorded as “blocks CRYAB aggregation”. Besides, in the test on SCs (Doxo-induced senescence, viability on day 5), the “viability of senescent versus non-senescent SCs” value is recorded as “decreased the viability of senescent SCs”. For the same compound, in the test on SCs (Mus musculus, 168 h, SCs, 7 days in culture), the concentration for half-maximal inhibition (IC50) (as a rule, the concentration that gives 50% inhibition) came to 3.7 µM.
